Earlier results as cited in PubChem BioAssay AID1259409 (Chemical Carcinogenesis Research Information System (CCRIS), 2018).

Test system: rodent chemically induced tumor inhibition, incidence and multiplicity
Test: CCRIS tumor inhibitor studies
Details: Dose [Inhibitor]: 0

In the case of O=c1oc2c(O)c(O)cc3c(=O)oc4c(O)c(O)cc1c4c23, the “tumour outcome (control, treated, inhibition, significance)” value (Carcinogen: AZOXYMETHANE, 25843-45-2, 4000 PPM IN DIET BEGINNING PRIOR TO CARCINOGEN DOSE AND CONTINUING FOR DURATION OF STUDY (STUDY DURATION: 54 WK), Route [Inhibitor]: ORAL, Species: RAT, Strain/Sex: F344/MALE, Target Tissue: Type of Lesion: SMALL INTESTINE: ADENOCARCINOMA, Dose [Carcinogen]: 15 MG/KG 1/WK FOR 2 WK, Promoter: NONE USED) is given as 50%, 36%, 28%, not calculated, the “tumour outcome (control, treated, inhibition, significance)” value (Carcinogen: AZOXYMETHANE, 25843-45-2, 4000 PPM IN DIET BEGINNING PRIOR TO CARCINOGEN DOSE AND CONTINUING FOR DURATION OF STUDY (STUDY DURATION: 54 WK), Route [Inhibitor]: ORAL, Species: RAT, Strain/Sex: F344/MALE, Target Tissue: Type of Lesion: SMALL INTESTINE: ADENOMA, Dose [Carcinogen]: 15 MG/KG 1/WK FOR 2 WK, Promoter: NONE USED) is given as 3%, 0%, 100%, not calculated and the “tumour outcome (control, treated, inhibition, significance)” value (Carcinogen: AZOXYMETHANE, 25843-45-2, 4000 PPM IN DIET FOR 56 WK BEGINNING 2 WK PRIOR TO CARCINOGEN TREATMENT (STUDY DURATION: 56 WK), Route [Inhibitor]: ORAL, Species: RAT, Strain/Sex: F344/MALE, Target Tissue: Type of Lesion: COLON (DISTAL): TUMOR, Dose [Carcinogen]: 15 MG/KG 1/WK FOR 2 WK, Promoter: NONE USED) is given as 47%, 47%, 0%, not significant. The “tumour outcome (control, treated, inhibition, significance)” value (Carcinogen: AZOXYMETHANE, 25843-45-2, 4000 PPM IN DIET FOR 56 WK BEGINNING 2 WK PRIOR TO CARCINOGEN TREATMENT (STUDY DURATION: 56 WK), Route [Inhibitor]: ORAL, Species: RAT, Strain/Sex: F344/MALE, Target Tissue: Type of Lesion: COLON (PROXIMAL): TUMOR, Dose [Carcinogen]: 15 MG/KG 1/WK FOR 2 WK, Promoter: NONE) was 39%, 44%, -13%, not significant, the “tumour outcome (control, treated, inhibition, significance)” value (Carcinogen: AZOXYMETHANE, 25843-45-2, 8000 PPM IN DIET BEGINNING PRIOR TO CARCINOGEN DOSE AND CONTINUING FOR DURATION OF STUDY (STUDY DURATION: 54 WK), Route [Inhibitor]: ORAL, Species: RAT, Strain/Sex: F344/MALE, Target Tissue: Type of Lesion: COLON: ADENOCARCINOMA, Dose [Carcinogen]: 15 MG/KG 1/WK FOR 2 WK, Promoter: NONE USED) was 72%, 64%, 11%, not calculated and the “tumour outcome (control, treated, inhibition, significance)” value (Carcinogen: AZOXYMETHANE, 25843-45-2, 8000 PPM IN DIET BEGINNING PRIOR TO CARCINOGEN DOSE AND CONTINUING FOR DURATION OF STUDY (STUDY DURATION: 54 WK), Route [Inhibitor]: ORAL, Species: RAT, Strain/Sex: F344/MALE, Target Tissue: Type of Lesion: COLON: ADENOMA, Dose [Carcinogen]: 15 MG/KG 1/WK FOR 2 WK, Promoter: NONE USED) was 14%, 3%, 76%, not calculated. For the same compound, the “tumour outcome (control, treated, inhibition, significance)” value (Carcinogen: AZOXYMETHANE, 25843-45-2, 8000 PPM IN DIET BEGINNING PRIOR TO CARCINOGEN DOSE AND CONTINUING FOR DURATION OF STUDY (STUDY DURATION: 54 WK), Route [Inhibitor]: ORAL, Species: RAT, Strain/Sex: F344/MALE, Target Tissue: Type of Lesion: SMALL INTESTINE: ADENOCARCINOMA, Dose [Carcinogen]: 15 MG/KG 1/WK FOR 2 WK, Promoter: NONE USED) was 50%, 28%, 44%, not calculated, the “tumour outcome (control, treated, inhibition, significance)” value (Carcinogen: AZOXYMETHANE, 25843-45-2, 8000 PPM IN DIET BEGINNING PRIOR TO CARCINOGEN DOSE AND CONTINUING FOR DURATION OF STUDY (STUDY DURATION: 54 WK), Route [Inhibitor]: ORAL, Species: RAT, Strain/Sex: F344/MALE, Target Tissue: Type of Lesion: SMALL INTESTINE: ADENOMA, Dose [Carcinogen]: 15 MG/KG 1/WK FOR 2 WK, Promoter: NONE USED) was 3%, 0%, 100%, not calculated and the “tumour outcome (control, treated, inhibition, significance)” value (Carcinogen: AZOXYMETHANE, 25843-45-2, 8000 PPM IN DIET FOR 56 WK BEGINNING 2 WK PRIOR TO CARCINOGEN TREATMENT (STUDY DURATION: 56 WK), Route [Inhibitor]: ORAL, Species: RAT, Strain/Sex: F344/MALE, Target Tissue: Type of Lesion: COLON(DISTAL): TUMOR, Dose [Carcinogen]: 15 MG/KG 1/WK FOR 2 WK, Promoter: NONE USED) was 47%, 47%, 0%, not significant. The “tumour outcome (control, treated, inhibition, significance)” value (Carcinogen: AZOXYMETHANE, 25843-45-2, 8000 PPM IN DIET FOR 56 WK BEGINNING 2 WK PRIOR TO CARCINOGEN TREATMENT (STUDY DURATION: 56 WK), Route [Inhibitor]: ORAL, Species: RAT, Strain/Sex: F344/MALE, Target Tissue: Type of Lesion: COLON(PROXIMAL): TUMOR, Dose [Carcinogen]: 15 MG/KG 1/WK FOR 2 WK, Promoter: NONE USED) was 39%, 30%, 23%, not significant and the “tumour outcome (control, treated, inhibition, significance)” value (Carcinogen: BENZO[A]PYRENE, 50-32-8, 300 NMOL (TOTAL DOSE) APPLIED 10 MIN PRIOR TO CARCINOGEN DOSE INJECTED AS 1/7, 2/7, AND 4/7 OF THE TOTAL ON DAYS 1, 8, Route [Inhibitor]: INTRAPERITONEAL, Species: MOUSE, Strain/Sex: ICR/MALE, FEMALE, Target Tissue: Type of Lesion: LUNG: TUMOR, Dose [Carcinogen]: 450 NMOL (TOTAL DOSE) INJECTED IN DOSES OF 1/7, 2/7, AND 4/7 ON DAYS 1, 8, AND 15 OF LIFE, RESPECTIVELY, Promoter: NONE USED) was 74%, 75%, -1%, not significant.
